How the values were obtained:
[1] = Clearance in iv dosed rat; format: ADME, organism-based; conditions: in vivo
[2] = Intrinsic clearance in rat liver microsomes; format: ADME; conditions: read-out: CLH
[3] = target: T1, Glucose-dependent insulinotropic receptor (Homo sapiens, UniProt Q8TDV5); test: Agonist activity at human GPR119 expressed in HEK293 cells assessed as cAMP accumulation after 30 mins; format: functional, cell-based
T1 sequence (Q8TDV5 whole entry): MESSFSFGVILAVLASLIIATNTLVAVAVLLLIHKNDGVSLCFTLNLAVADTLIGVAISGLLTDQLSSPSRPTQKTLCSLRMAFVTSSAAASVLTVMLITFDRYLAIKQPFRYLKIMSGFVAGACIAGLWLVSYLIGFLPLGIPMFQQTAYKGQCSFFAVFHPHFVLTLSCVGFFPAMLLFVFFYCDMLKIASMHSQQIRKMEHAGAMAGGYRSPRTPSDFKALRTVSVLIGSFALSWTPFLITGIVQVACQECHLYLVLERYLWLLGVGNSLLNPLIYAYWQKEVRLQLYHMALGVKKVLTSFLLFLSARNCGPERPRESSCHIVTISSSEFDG

[4] = target: T2, Glucose-dependent insulinotropic receptor (Homo sapiens) (UniProt Q8TDV5); test: Agonist activity at human GPR119 expressed in HEK293 cells assessed as cAMP accumulation after 30 mins relative to isopropyl 4-(1-(4-(methylsulfonyl)phenyl)-1H-pyrazolo[3,4-d]pyrimidin-4-yloxy)piperidine-1-carboxylate; format: functional, cell-based
T2 sequence (whole entry): T1 sequence (Q8TDV5 whole entry)

[5] = target: T3, Glucose-dependent insulinotropic receptor (Rattus norvegicus, UniProt Q7TQN8); test: Agonist activity at rat GPR119 assessed as cAMP accumulation; format: functional
T3 sequence (Q7TQN8 whole entry): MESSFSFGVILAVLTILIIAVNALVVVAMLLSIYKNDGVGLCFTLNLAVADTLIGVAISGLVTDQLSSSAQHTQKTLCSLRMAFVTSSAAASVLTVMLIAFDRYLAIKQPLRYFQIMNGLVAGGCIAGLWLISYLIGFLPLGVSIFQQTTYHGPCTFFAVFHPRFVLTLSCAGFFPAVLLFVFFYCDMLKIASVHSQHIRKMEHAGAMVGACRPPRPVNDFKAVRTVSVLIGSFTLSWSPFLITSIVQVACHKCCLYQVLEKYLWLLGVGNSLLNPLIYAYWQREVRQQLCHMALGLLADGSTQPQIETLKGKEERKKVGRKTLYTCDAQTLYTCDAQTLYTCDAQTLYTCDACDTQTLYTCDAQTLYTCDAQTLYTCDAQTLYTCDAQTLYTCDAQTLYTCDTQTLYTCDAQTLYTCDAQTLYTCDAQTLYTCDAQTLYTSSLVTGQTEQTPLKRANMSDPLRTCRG

[6] = target: T4, Glucose-dependent insulinotropic receptor (Mus musculus, UniProt Q7TQP3); test: Agonist activity at mouse GPR119 assessed as cAMP accumulation; format: functional
T4 sequence (Q7TQP3 whole entry): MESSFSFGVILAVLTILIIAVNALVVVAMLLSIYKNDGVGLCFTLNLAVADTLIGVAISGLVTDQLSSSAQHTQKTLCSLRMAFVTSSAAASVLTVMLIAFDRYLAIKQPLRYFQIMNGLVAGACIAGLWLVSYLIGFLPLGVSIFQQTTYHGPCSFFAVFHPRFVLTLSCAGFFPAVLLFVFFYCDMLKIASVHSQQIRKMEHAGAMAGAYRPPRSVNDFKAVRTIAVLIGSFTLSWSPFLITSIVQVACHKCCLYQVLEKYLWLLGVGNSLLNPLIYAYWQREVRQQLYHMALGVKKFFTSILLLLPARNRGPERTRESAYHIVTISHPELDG

[7] = Plasma protein binding in cynomolgus monkey; format: ADME, cell-free, Macaca fascicularis; conditions: read-out: PPB
Bile salt export pump = Bile salt export pump (Homo sapiens, UniProt O95342); test: Binding affinity to BSEP (unknown origin)
Chain of Bile salt export pump (O95342 whole entry): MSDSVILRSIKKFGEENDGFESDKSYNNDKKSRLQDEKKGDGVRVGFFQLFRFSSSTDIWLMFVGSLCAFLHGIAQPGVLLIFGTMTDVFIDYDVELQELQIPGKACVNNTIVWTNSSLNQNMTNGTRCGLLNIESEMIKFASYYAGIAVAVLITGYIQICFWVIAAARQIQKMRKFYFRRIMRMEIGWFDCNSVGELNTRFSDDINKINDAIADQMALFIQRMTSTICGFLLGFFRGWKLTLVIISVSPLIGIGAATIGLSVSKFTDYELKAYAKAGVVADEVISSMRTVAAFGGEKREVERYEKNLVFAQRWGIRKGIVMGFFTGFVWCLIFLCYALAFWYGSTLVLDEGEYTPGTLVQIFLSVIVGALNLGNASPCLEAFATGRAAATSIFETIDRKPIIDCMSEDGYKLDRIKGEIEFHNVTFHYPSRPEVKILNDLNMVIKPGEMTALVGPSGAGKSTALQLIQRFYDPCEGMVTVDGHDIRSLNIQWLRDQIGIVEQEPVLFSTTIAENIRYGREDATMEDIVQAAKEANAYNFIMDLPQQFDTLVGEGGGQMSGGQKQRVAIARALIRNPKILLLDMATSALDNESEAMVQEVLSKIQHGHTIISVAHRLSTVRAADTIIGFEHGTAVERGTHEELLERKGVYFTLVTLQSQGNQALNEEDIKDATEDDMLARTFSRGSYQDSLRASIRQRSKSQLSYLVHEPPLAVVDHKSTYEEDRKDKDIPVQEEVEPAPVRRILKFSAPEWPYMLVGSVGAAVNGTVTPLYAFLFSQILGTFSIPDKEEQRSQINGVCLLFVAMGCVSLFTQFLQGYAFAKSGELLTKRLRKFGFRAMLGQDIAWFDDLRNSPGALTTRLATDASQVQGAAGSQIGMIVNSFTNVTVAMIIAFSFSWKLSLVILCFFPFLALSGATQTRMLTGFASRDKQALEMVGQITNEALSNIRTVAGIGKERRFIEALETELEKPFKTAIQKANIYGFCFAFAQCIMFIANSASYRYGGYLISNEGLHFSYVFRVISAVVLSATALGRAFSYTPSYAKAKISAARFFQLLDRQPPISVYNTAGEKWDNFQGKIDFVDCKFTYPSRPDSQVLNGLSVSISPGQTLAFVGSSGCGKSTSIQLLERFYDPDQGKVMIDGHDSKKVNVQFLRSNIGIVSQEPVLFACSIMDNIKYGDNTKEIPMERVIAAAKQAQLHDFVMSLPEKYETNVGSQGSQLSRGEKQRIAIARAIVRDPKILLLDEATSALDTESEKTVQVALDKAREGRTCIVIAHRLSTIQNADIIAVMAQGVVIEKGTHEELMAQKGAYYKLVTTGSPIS

[8] = Plasma protein binding in human; format: ADME, cell-free; conditions: read-out: PPB
[9] = Inhibition of Cytochrome P450 (unknown origin); format: ADME; conditions: human
[10] = target: T5, Nuclear receptor subfamily 1 group I member 2 (Homo sapiens, UniProt O75469); test: Activation of human PXR
T5 sequence (O75469 whole entry): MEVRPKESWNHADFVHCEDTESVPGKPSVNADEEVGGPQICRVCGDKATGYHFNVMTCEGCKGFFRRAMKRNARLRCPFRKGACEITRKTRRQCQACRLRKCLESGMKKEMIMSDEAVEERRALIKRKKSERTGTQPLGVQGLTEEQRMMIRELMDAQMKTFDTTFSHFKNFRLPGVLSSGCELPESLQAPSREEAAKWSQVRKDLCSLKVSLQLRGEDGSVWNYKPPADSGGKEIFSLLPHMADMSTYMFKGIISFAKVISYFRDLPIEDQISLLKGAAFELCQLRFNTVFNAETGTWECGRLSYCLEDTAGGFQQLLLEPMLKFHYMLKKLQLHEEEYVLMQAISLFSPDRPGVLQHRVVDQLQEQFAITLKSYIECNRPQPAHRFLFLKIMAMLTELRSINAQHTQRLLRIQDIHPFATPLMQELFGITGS

[11] = Oral bioavailability in cynomolgus monkey at 2 mg/kg; format: ADME, organism-based, Macaca fascicularis; conditions: in vivo
[12] = Volume of distribution at steady state in cynomolgus monkey at 0.5 mg/kg, iv; format: ADME, organism-based, Macaca fascicularis; design: dose 0.5 mg/kg, route intravenous; conditions: in vivo, read-out: Vdss
[13] = Half life in cynomolgus monkey at 0.5 mg/kg, iv; format: ADME, organism-based, Macaca fascicularis; design: dose 0.5 mg/kg, route intravenous; conditions: in vivo
[14] = Clearance in cynomolgus monkey at 0.5 mg/kg, iv; format: ADME, organism-based, Macaca fascicularis; design: dose 0.5 mg/kg, route intravenous; conditions: in vivo
[15] = Oral bioavailability in rat at 2 mg/kg; format: ADME, organism-based; conditions: in vivo
[16] = Volume of distribution at steady state in rat at 0.5 mg/kg, iv; format: ADME, organism-based; design: dose 0.5 mg/kg, route intravenous; conditions: in vivo, read-out: Vdss
[17] = Half life in rat at 0.5 mg/kg, iv; format: ADME, organism-based; design: dose 0.5 mg/kg, route intravenous; conditions: in vivo
[18] = Clearance in rat at 0.5 mg/kg, iv; format: ADME, organism-based; design: dose 0.5 mg/kg, route intravenous; conditions: in vivo
[19] = Metabolic stability in human liver microsomes assessed as compound remaining at 1 uM after 30 mins; format: ADME; conditions: read-out: Stability
[20] = Intrinsic clearance in human liver microsomes at 1 uM after 30 mins; format: ADME; conditions: read-out: CLH
[21] = target: T6, G-protein coupled receptor 119 (Macaca fascicularis) (UniProt G7Q3P2); test: Agonist activity at cynomolgus monkey GPR119 assessed as cAMP accumulation relative to control; format: functional
T6 sequence (whole entry): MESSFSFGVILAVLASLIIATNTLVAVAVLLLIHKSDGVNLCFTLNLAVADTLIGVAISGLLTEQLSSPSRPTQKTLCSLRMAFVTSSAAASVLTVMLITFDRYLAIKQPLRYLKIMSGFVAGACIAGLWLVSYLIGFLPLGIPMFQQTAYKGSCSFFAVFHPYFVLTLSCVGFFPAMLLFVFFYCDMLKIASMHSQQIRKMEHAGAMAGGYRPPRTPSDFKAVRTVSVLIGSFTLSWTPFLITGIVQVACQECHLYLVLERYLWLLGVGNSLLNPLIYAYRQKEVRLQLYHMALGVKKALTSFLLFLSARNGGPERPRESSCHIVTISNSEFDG

[22] = target: T7, G-protein coupled receptor 119 (Macaca fascicularis, UniProt G7Q3P2); test: Agonist activity at cynomolgus monkey GPR119 assessed as cAMP accumulation; format: functional
T7 sequence (G7Q3P2 whole entry): T6 sequence (whole entry)

[23] = Intrinsic clearance in human liver microsomes; format: ADME; conditions: read-out: CLH
[24] = Metabolic stability in rat liver microsomes assessed as compound remaining at 1 uM after 30 mins; format: ADME; conditions: read-out: Stability

| Structure (SMILES) | microsomal CLint [2] [µL/min/mg] | EC50 [3] [nM] | Efficacy [4] [%] | other results |
| --- | --- | --- | --- | --- |
| Cc1cc2c(c(Oc3cc(NS(=O)(=O)c4ccc(Cl)cc4)ccc3Cl)n1)C(=O)N(C(C)C)C2=O | 29 | 33 |  | clearance [1]: 3.67 mL/min/kg |
| Cc1cc2c(c(Oc3cccc(N(C)S(=O)(=O)c4ccc(Cl)cc4)c3)n1)C(=O)N(C(C)C)C2=O | > 400 | 11 |  |  |
| Cc1cc2c(c(Oc3ccc(C)c(NS(=O)(=O)c4ccc(Cl)cc4)c3)n1)C(=O)N(C(C)C)C2=O | 131 | 9 |  |  |
| Cc1cc2c(c(Oc3cc(NS(=O)(=O)c4ccc(Cl)cc4)ccc3F)n1)C(=O)N(C(C)C)C2=O | 84 | 16 |  | EC50 [5]: 2050 nM; EC50 [6]: 1900 nM; fraction unbound [7]: < 0.01; Activity (Bile salt export pump): Not Active; fraction unbound [8]: < 0.01; inhibition (INH) [9]: Not Active; Activity [10]: Not Active; bioavailability [11]: 29%; Vd [12]: 1.1 L/kg; half-life [13]: 5.6 h; clearance [14]: 7.5 mL/min/kg; bioavailability [15]: 95%; Vd [16]: 1.5 L/kg; half-life [17]: 1.5 h; clearance [18]: 11.8 mL/min/kg; remaining at 0.5 h, 1 µM [19]: 88%; microsomal CLint at 1 µM [20]: 29 µL/min/mg; Efficacy [21]: 102%; EC50 [22]: 73 nM |
| Cc1cc2c(c(Oc3cccc(NC(=O)c4ccc(Cl)cc4)c3)n1)C(=O)N(C(C)C)C2=O | 40 | > 30000 |  |  |
| Cc1cc2c(c(Oc3cccc(NS(=O)(=O)c4ccc(Cl)cc4)c3)n1)C(=O)N(C1CC1)C2=O |  | 15 | 111 |  |
| COc1cc2c(c(Oc3cccc(NS(=O)(=O)c4ccc(Cl)cc4)c3)n1)C(=O)N(C1CC1)C2=O |  | 19 | 97 |  |
| Cc1cc2c(c(Oc3cccc(NS(=O)(=O)c4ccc(Cl)cc4)c3)n1)C(=O)N(C1CCCC1)C2=O |  | 69 | 95 |  |
| Cc1cc2c(c(Sc3cccc(NS(=O)(=O)c4ccc(Cl)cc4)c3)n1)C(=O)N(C(C)C)C2=O |  | 19 | 76 |  |

Further lines, with some results ahead:

| microsomal CLint [2] [µL/min/mg] | EC50 [3] [nM] | Efficacy [4] [%] | Structure (SMILES) | other results |
| --- | --- | --- | --- | --- |
|  | 299 | 102 | Cc1cc2c(c(Oc3cccc(NS(=O)(=O)c4ccc(Cl)cc4)c3)n1)C(=O)N(c1ccccc1)C2=O |  |
|  | 382 | 81 | Cc1cc2c(c(Nc3ccc(C)c(NS(=O)(=O)c4ccc(Cl)cc4)c3)n1)C(=O)N(C(C)C)C2=O |  |
|  | 357 |  | Cc1cc2c(c(Oc3cc(F)cc(NS(=O)(=O)c4ccc(Cl)cc4)c3)n1)C(=O)N(C(C)C)C2=O |  |
| 63 | 45 | 99 | O=C1c2cc(C3CC3)nc(Oc3cccc(NS(=O)(=O)c4ccc(Cl)cc4)c3)c2C(=O)N1C1CC1 | microsomal CLint [23]: 27 µL/min/mg |
|  | 121 | 109 | Cc1cc2c(c(Oc3cccc(NS(=O)(=O)c4ccc(Cl)cc4)c3)n1)C(=O)NC2=O |  |
|  | 238 |  | Cc1cc2c(c(Oc3cccc(S(=O)(=O)Nc4ccc(Cl)cc4)c3)n1)C(=O)N(C(C)C)C2=O |  |
| 250 | 13 | 99 | Cc1cc2c(c(Oc3cccc(NS(=O)(=O)c4ccc(Cl)cc4)c3)n1)C(=O)N(C(C)C)C2=O | remaining at 0.5 h, 1 µM [24]: 15%; clearance [1]: 80 mL/min/kg |
|  | 224 | 85 | Cc1cc2c(c(Sc3ccc(C)c(NS(=O)(=O)c4ccc(Cl)cc4)c3)n1)C(=O)N(C(C)C)C2=O |  |
|  | 11 | 120 | CCN1C(=O)c2cc(C)nc(Oc3cccc(NS(=O)(=O)c4ccc(Cl)cc4)c3)c2C1=O |  |
|  | 493 |  | Cc1cc2c(c(Oc3cccc(NS(=O)(=O)c4ccc(Cl)cc4)c3F)n1)C(=O)N(C(C)C)C2=O |  |
|  | 23 | 122 | Cc1cc2c(c(Oc3cccc(NS(=O)(=O)c4ccc(Cl)cc4)c3)n1)C(=O)N(C)C2=O |  |
|  | 41 |  | CC(C)OC(=O)N1CCC(Oc2ncnc3c2cnn3-c2ccc(S(C)(=O)=O)cc2)CC1 |  |

— ChEMBL document CHEMBL3102800, “Discovery and optimization of N-(3-(1,3-dioxo-2,3-dihydro-1H-pyrrolo[3,4-c]pyridin-4-yloxy)phenyl)benzenesulfonamides as novel GPR119 agonists” (Bioorg Med Chem Lett, 2014)
